Data as given in ChEMBL document CHEMBL4507257, “Data for DCP probe ABT-100” (2021).

Key:
[1] = tested on: Tyrosine-protein kinase ABL1 (Homo sapiens), P00519 [Q252H]; details: Compound concentration 1000.0 nM
[2] = tested on: Tyrosine-protein kinase ABL1 (Homo sapiens), P00519 [T315I]; details: Compound concentration 1000.0 nM
[3] = target: 5'-AMP-activated protein kinase catalytic subunit alpha-1 (Homo sapiens) (UniProt Q13131); details: Compound concentration 1000.0 nM
[4] = target: Mitogen-activated protein kinase kinase kinase 5 (Homo sapiens) (UniProt Q99683); details: Compound concentration 1000.0 nM
[5] = target: Calcium/calmodulin-dependent protein kinase type 1 (Homo sapiens) (UniProt Q14012); details: Compound concentration 1000.0 nM
[6] = target: Cyclin-dependent kinase-like 3 (Homo sapiens) (UniProt Q8IVW4); details: Compound concentration 1000.0 nM
[7] = target: Casein kinase II subunit alpha (Homo sapiens) (UniProt P68400); details: Compound concentration 1000.0 nM
[8] = target: Death-associated protein kinase 1 (Homo sapiens) (UniProt P53355); details: Compound concentration 1000.0 nM
Death-associated protein kinase 1 (Homo sapiens), sequence (P53355 whole entry, looked up): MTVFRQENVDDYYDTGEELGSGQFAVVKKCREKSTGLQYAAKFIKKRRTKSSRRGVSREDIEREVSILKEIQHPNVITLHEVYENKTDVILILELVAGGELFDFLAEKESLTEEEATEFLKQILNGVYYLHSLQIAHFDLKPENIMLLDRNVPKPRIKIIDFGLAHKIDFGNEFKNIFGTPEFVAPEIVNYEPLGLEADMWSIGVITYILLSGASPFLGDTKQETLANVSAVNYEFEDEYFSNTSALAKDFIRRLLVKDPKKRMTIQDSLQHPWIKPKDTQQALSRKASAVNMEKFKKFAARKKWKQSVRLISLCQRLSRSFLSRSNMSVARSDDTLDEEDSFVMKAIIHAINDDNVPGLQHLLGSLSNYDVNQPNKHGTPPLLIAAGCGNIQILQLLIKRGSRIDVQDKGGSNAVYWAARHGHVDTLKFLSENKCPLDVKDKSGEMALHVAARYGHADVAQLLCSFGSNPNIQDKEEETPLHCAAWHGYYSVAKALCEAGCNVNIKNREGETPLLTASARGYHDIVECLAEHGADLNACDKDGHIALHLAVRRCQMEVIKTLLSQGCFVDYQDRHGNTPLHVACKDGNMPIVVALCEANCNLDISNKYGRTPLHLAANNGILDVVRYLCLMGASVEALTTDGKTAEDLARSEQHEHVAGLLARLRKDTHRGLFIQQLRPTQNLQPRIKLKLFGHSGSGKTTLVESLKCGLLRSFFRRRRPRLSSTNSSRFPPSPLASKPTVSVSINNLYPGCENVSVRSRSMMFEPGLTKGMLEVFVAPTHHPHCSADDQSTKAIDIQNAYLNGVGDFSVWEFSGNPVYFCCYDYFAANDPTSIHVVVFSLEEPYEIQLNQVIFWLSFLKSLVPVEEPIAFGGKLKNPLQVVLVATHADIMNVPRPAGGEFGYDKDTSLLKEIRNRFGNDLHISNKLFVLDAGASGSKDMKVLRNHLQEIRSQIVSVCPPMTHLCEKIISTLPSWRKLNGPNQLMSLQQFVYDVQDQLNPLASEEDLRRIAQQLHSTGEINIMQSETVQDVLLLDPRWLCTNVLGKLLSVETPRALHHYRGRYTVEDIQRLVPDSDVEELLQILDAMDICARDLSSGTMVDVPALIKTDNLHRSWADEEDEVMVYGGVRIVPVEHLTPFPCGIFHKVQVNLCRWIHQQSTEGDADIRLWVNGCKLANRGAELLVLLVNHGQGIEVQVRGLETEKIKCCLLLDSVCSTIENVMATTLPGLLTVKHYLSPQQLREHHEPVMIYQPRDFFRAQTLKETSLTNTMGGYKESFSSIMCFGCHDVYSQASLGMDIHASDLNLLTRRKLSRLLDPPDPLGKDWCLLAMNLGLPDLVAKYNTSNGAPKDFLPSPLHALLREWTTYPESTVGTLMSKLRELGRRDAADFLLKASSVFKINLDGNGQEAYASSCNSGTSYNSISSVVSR

[9] = target: Myotonin-protein kinase (Homo sapiens) (UniProt Q09013); details: Compound concentration 1000.0 nM
[10] = target: Ephrin type-A receptor 1 (Homo sapiens) (UniProt P21709); details: Compound concentration 1000.0 nM
[11] = tested on: Receptor-type tyrosine-protein kinase FLT3 (Homo sapiens), P36888 [D835Y]; details: Compound concentration 1000.0 nM
[12] = tested on: Receptor-type tyrosine-protein kinase FLT3 (Homo sapiens), P36888 [N841I]; details: Compound concentration 1000.0 nM
[13] = tested on: Receptor-type tyrosine-protein kinase FLT3 (Homo sapiens), P36888 [R834Q]; details: Compound concentration 1000.0 nM
[14] = target: Homeodomain-interacting protein kinase 3 (Homo sapiens) (UniProt Q9H422); details: Compound concentration 1000.0 nM
[15] = target: Serine/threonine-protein kinase ICK (Homo sapiens) (UniProt Q9UPZ9); details: Compound concentration 1000.0 nM
[16] = target: Tyrosine-protein kinase JAK1 (Homo sapiens) (UniProt P23458); details: Compound concentration 1000.0 nM
[17] = tested on: Mast/stem cell growth factor receptor Kit (Homo sapiens), P10721 [V559D,T670I]; details: Compound concentration 1000.0 nM
[18] = target: Serine/threonine-protein kinase LATS1 (Homo sapiens) (UniProt O95835); details: Compound concentration 1000.0 nM
[19] = target: LIM domain kinase 1 (Homo sapiens) (UniProt P53667); details: Compound concentration 1000.0 nM
LIM domain kinase 1 (Homo sapiens), sequence (P53667 whole entry, looked up, the tested form may be a part): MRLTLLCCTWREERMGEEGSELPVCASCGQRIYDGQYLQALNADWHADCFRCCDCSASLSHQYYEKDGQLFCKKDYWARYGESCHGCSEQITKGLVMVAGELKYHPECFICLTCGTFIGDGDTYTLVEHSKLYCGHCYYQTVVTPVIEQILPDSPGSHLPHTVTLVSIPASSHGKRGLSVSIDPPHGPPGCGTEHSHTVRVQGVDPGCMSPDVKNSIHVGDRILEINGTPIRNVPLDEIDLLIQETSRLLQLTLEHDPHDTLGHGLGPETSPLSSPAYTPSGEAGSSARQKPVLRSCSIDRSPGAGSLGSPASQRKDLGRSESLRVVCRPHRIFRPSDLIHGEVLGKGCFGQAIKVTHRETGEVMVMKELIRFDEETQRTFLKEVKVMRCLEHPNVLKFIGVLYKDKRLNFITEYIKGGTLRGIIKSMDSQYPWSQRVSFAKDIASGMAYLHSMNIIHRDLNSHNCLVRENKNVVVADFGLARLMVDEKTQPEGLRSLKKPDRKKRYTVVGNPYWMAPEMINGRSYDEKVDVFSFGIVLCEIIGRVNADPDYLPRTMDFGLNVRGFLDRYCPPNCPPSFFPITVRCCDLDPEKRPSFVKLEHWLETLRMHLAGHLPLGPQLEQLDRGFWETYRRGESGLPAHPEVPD

[20] = target: Leukocyte tyrosine kinase receptor (Homo sapiens) (UniProt P29376); details: Compound concentration 1000.0 nM
Leukocyte tyrosine kinase receptor (Homo sapiens), sequence (P29376 whole entry): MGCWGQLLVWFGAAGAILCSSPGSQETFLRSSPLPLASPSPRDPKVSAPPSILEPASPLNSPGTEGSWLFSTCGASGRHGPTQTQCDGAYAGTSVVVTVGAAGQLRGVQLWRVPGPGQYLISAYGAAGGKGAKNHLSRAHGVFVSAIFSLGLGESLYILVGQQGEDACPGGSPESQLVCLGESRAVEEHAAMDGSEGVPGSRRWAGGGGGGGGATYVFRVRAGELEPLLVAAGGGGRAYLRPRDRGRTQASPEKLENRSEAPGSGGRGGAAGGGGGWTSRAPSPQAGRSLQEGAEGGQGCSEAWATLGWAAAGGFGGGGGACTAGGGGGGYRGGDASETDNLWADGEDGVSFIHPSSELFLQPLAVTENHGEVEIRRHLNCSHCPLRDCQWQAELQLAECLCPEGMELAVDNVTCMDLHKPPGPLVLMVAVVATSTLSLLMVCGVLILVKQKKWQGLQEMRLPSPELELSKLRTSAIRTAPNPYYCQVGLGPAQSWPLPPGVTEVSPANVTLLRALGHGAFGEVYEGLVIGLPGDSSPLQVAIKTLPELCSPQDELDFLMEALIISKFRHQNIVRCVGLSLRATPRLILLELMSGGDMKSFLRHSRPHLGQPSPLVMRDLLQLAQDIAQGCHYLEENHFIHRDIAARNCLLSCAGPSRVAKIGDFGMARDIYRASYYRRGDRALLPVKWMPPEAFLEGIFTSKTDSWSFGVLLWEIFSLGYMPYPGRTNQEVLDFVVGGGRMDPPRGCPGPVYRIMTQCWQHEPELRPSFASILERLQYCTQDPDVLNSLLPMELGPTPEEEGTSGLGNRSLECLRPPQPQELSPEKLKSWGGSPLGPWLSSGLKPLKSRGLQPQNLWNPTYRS

[21] = tested on: Hepatocyte growth factor receptor (Homo sapiens), P08581 [M1250T]; details: Compound concentration 1000.0 nM
[22] = target: Mitogen-activated protein kinase kinase kinase 9 (Homo sapiens) (UniProt P80192); details: Compound concentration 1000.0 nM
Mitogen-activated protein kinase kinase kinase 9 (Homo sapiens), sequence (P80192 whole entry, looked up): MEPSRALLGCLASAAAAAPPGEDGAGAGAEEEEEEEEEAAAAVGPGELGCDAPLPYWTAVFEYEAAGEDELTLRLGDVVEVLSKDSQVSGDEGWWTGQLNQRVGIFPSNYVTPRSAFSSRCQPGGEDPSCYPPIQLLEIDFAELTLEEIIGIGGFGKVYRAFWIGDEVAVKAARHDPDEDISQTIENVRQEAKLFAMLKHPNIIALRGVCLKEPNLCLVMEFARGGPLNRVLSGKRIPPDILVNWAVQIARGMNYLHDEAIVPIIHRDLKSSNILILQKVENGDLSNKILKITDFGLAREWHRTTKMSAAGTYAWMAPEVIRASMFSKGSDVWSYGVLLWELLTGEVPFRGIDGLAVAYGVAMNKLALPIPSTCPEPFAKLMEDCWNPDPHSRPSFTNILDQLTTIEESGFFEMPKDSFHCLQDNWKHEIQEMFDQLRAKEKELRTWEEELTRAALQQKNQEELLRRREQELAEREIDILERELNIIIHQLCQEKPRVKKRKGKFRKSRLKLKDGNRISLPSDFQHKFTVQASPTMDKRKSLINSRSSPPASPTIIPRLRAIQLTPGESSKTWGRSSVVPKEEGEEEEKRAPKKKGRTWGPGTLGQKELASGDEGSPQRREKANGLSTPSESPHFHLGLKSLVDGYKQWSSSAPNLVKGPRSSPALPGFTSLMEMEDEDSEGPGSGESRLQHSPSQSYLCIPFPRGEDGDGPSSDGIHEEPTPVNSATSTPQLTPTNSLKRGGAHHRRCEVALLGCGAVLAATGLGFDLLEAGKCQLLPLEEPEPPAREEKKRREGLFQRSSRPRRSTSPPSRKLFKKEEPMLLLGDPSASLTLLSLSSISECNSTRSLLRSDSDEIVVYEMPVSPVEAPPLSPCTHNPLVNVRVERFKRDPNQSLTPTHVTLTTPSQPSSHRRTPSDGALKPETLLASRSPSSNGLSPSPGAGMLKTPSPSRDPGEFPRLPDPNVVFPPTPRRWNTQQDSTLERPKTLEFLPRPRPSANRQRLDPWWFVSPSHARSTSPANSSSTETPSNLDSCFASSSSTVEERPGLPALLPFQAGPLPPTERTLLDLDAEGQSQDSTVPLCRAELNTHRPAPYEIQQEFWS

[23] = target: Mitogen-activated protein kinase kinase kinase 11 (Homo sapiens) (UniProt Q16584); details: Compound concentration 1000.0 nM
[24] = target: Serine/threonine-protein kinase 3 (Homo sapiens) (UniProt Q13188); details: Compound concentration 1000.0 nM
[25] = target: Cyclin-dependent kinase 18 (Homo sapiens) (UniProt Q07002); details: Compound concentration 1000.0 nM
Cyclin-dependent kinase 18 (Homo sapiens), sequence (Q07002 whole entry, canonical isoform): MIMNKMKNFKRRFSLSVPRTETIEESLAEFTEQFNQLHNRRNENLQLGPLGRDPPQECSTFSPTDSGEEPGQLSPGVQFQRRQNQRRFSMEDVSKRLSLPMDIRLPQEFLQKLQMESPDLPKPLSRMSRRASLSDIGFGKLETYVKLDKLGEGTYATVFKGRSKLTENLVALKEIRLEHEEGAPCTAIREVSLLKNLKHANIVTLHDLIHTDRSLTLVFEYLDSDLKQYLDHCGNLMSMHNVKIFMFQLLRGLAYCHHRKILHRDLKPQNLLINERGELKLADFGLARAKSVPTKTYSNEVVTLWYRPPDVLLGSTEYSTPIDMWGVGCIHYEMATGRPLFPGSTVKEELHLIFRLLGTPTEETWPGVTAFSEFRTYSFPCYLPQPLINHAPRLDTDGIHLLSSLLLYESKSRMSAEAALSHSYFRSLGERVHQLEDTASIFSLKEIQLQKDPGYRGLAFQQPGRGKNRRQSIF

[26] = tested on: Phosphatidylinositol 4,5-bisphosphate 3-kinase catalytic subunit alpha isoform (Homo sapiens), P42336 [E542K]; details: Compound concentration 1000.0 nM
[27] = tested on: Phosphatidylinositol 4,5-bisphosphate 3-kinase catalytic subunit alpha isoform (Homo sapiens), P42336 [M1043I]; details: Compound concentration 1000.0 nM
[28] = target: Membrane-associated tyrosine- and threonine-specific cdc2-inhibitory kinase (Homo sapiens) (UniProt Q99640); details: Compound concentration 1000.0 nM
[29] = target: Protein kinase C epsilon type (Homo sapiens) (UniProt Q02156); details: Compound concentration 1000.0 nM
[30] = target: Protein kinase C iota type (Homo sapiens) (UniProt P41743); details: Compound concentration 1000.0 nM
[31] = target: Dual serine/threonine and tyrosine protein kinase (Homo sapiens) (UniProt Q6XUX3); details: Compound concentration 1000.0 nM
[32] = target: Ribosomal protein S6 kinase alpha-4 (Homo sapiens) (UniProt O75676); details: Compound concentration 1000.0 nM
[33] = target: STE20/SPS1-related proline-alanine-rich protein kinase (Homo sapiens) (UniProt Q9UEW8); details: Compound concentration 1000.0 nM
[34] = target: Serine/threonine-protein kinase TBK1 (Homo sapiens) (UniProt Q9UHD2); details: Compound concentration 1000.0 nM
[35] = target: Dual specificity testis-specific protein kinase 1 (Homo sapiens) (UniProt Q15569); details: Compound concentration 1000.0 nM
[36] = target: Tyrosine-protein kinase receptor Tie-1 (Homo sapiens) (UniProt P35590); details: Compound concentration 1000.0 nM
[37] = target: T1, 5-hydroxytryptamine receptor 1A (Homo sapiens) (UniProt P08908); details: Compound concentration 10.0 uM
T1 sequence (whole entry): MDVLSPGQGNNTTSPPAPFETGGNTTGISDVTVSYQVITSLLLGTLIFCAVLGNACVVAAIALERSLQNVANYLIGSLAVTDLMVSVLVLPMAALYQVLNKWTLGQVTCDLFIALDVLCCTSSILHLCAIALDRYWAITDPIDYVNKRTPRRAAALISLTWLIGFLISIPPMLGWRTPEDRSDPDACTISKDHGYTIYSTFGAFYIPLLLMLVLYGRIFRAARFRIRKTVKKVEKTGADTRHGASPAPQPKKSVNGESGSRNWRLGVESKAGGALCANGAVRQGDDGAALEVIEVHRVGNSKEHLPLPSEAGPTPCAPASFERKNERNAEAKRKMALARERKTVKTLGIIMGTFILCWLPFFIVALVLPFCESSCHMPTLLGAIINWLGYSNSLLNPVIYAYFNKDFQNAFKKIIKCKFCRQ

[38] = target: D(1A) dopamine receptor (Homo sapiens) (UniProt P21728); details: Compound concentration 10.0 uM
D(1A) dopamine receptor (Homo sapiens), sequence (P21728 whole entry): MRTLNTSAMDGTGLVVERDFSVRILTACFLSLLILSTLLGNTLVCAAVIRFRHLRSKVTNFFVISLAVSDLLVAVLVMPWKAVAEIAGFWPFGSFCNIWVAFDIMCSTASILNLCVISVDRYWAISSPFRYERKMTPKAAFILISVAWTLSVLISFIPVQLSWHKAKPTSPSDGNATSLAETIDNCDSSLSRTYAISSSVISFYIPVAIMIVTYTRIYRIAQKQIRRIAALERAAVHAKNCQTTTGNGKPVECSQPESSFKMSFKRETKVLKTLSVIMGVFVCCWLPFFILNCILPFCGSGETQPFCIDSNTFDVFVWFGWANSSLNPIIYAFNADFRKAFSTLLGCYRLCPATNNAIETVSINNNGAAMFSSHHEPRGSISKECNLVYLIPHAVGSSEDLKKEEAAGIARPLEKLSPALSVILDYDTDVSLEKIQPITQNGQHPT

[39] = target: Alpha-2A adrenergic receptor (Homo sapiens) (UniProt P08913); details: Compound concentration 10.0 uM

**Q.** `Cn1cncc1[C@](O)(COc1ccc(C#N)cc1-c1ccc(OC(F)(F)F)cc1)c1ccc(C#N)cc1` [ABT-100] was tested. Which residual activity [1] did it give?
**A.** 96%

**Q.** And the residual activity [2]?
**A.** 84%

**Q.** And the residual activity [3]?
**A.** 99%

**Q.** What about the residual activity [4] of the same compound?
**A.** 77%

**Q.** And the residual activity [5]?
**A.** 99%

**Q.** And the residual activity [6]?
**A.** 87%

**Q.** What about the residual activity [7] of the same compound?
**A.** 63%

**Q.** And the residual activity [8]?
**A.** 84%

**Q.** What about the residual activity [9] of the same compound?
**A.** 98%

**Q.** What about the residual activity [10] of the same compound?
**A.** 38%

**Q.** And the residual activity [11]?
**A.** 95%

**Q.** What about the residual activity [12] of the same compound?
**A.** 91%

**Q.** What about the residual activity [13] of the same compound?
**A.** 98%

**Q.** What about the residual activity [14] of the same compound?
**A.** 100%

**Q.** What about the residual activity [15] of the same compound?
**A.** 100%

**Q.** What about the residual activity [16] of the same compound?
**A.** 59%

**Q.** And the residual activity [17]?
**A.** 84%

**Q.** What about the residual activity [18] of the same compound?
**A.** 87%

**Q.** And the residual activity [19]?
**A.** 89%

**Q.** What about the residual activity [20] of the same compound?
**A.** 91%

**Q.** And the residual activity [21]?
**A.** 100%

**Q.** And the residual activity [22]?
**A.** 81%

**Q.** What about the residual activity [23] of the same compound?
**A.** 86%

**Q.** What about the residual activity [24] of the same compound?
**A.** 77%

**Q.** And the residual activity [25]?
**A.** 90%

**Q.** And the residual activity [26]?
**A.** 80%

**Q.** What about the residual activity [27] of the same compound?
**A.** 100%

**Q.** What about the residual activity [28] of the same compound?
**A.** 100%

**Q.** What about the residual activity [29] of the same compound?
**A.** 79%

**Q.** What about the residual activity [30] of the same compound?
**A.** 100%

**Q.** What about the residual activity [31] of the same compound?
**A.** 90%

**Q.** And the residual activity [32]?
**A.** 76%

**Q.** What about the residual activity [33] of the same compound?
**A.** 50%

**Q.** And the residual activity [34]?
**A.** 100%

**Q.** What about the residual activity [35] of the same compound?
**A.** 100%

**Q.** What about the residual activity [36] of the same compound?
**A.** 85%

**Q.** And the inhibition [37]?
**A.** 10.8%

**Q.** And the inhibition [38]?
**A.** 4.35%

**Q.** What about the inhibition [39] of the same compound?
**A.** 32.2%

**Q.** Which residual activity [1] does the source give for `Cn1cncc1[C@@](O)(COc1ccc(C#N)cc1-c1ccc(OC(F)(F)F)cc1)c1ccc(C#N)cc1` [A-108] here?
**A.** 76%

**Q.** And the residual activity [2]?
**A.** 6.1%

**Q.** And the residual activity [3]?
**A.** 100%

**Q.** And the residual activity [4]?
**A.** 91%

**Q.** What about the residual activity [5] of the same compound?
**A.** 100%

**Q.** What about the residual activity [6] of the same compound?
**A.** 81%

**Q.** What about the residual activity [7] of the same compound?
**A.** 100%

**Q.** What about the residual activity [8] of the same compound?
**A.** 100%

**Q.** And the residual activity [9]?
**A.** 94%

**Q.** And the residual activity [10]?
**A.** 93%

**Q.** What about the residual activity [11] of the same compound?
**A.** 78%

**Q.** What about the residual activity [12] of the same compound?
**A.** 100%

**Q.** And the residual activity [13]?
**A.** 100%

**Q.** What about the residual activity [14] of the same compound?
**A.** 97%

**Q.** What about the residual activity [15] of the same compound?
**A.** 75%

**Q.** And the residual activity [16]?
**A.** 100%

**Q.** And the residual activity [17]?
**A.** 82%

**Q.** What about the residual activity [18] of the same compound?
**A.** 100%

**Q.** And the residual activity [19]?
**A.** 100%

**Q.** And the residual activity [20]?
**A.** 100%

**Q.** What about the residual activity [21] of the same compound?
**A.** 97%

**Q.** And the residual activity [22]?
**A.** 98%

**Q.** What about the residual activity [23] of the same compound?
**A.** 100%

**Q.** What about the residual activity [24] of the same compound?
**A.** 95%

**Q.** And the residual activity [25]?
**A.** 100%

**Q.** And the residual activity [26]?
**A.** 81%

**Q.** And the residual activity [27]?
**A.** 72%

**Q.** And the residual activity [28]?
**A.** 100%

**Q.** What about the residual activity [29] of the same compound?
**A.** 100%

**Q.** And the residual activity [30]?
**A.** 100%

**Q.** What about the residual activity [31] of the same compound?
**A.** 100%

**Q.** What about the residual activity [32] of the same compound?
**A.** 93%

**Q.** And the residual activity [33]?
**A.** 100%

**Q.** And the residual activity [34]?
**A.** 100%

**Q.** And the residual activity [35]?
**A.** 92%

**Q.** And the residual activity [36]?
**A.** 100%

**Q.** What about the inhibition [37] of the same compound?
**A.** -6.52%

**Q.** What about the inhibition [38] of the same compound?
**A.** 19%

**Q.** What about the inhibition [39] of the same compound?
**A.** 3.37%
